Results reported in paper PMC11484942, “Rumicidins are a family of mammalian host-defense peptides plugging the 70S ribosome exit tunnel” (Nature Communications, 2024).
Ends that are not written are not given here.

Assays:
[1] = tested on: E. coli 1057 R2 (rpoS^Q3stop, macB^N470D); details: MHB + 0.9% NaCl
Method: Minimum inhibitory concentrations (MIC) were determined by broth microdilution assay based on Clinical and Laboratory Standards Institute (CLSI) guidelines using BSA in the growth medium to minimize AMP nonspecific adsorption. Bacterial test cultures were grown in the Mueller-Hinton broth (MHB, Sigma) at 37 °C to mid-log phase and then diluted with the 2× MH medium supplemented with 1.8% NaCl (or without salt) so that to reach a final cell concentration of 10^6 CFU/mL. 50 µL of the obtained bacterial suspension were added to aliquots of 50 µL of the peptide solutions serially diluted with sterilized 0.1% bovine serum albumin (BSA) in 96-well flat-bottom polystyrene microplates (Eppendorf #0030730011). […] To verify MIC values, the respiratory activity of the bacteria was determined. Briefly, 5 µL of 0.5 mg/mL resazurin (Sigma) was added to the wells after 24 h (or after 48 h for M. smegmatis) of incubation, and the plate was incubated for additional 3 h. In some cases, MICs were determined in the Lysogeny Broth (LB) or Middlebrook 7H9 medium. The reduction of resazurin to resorufin was recorded. […] The results were expressed as the median values determined based on at least three independent experiments performed in triplicate.
Resistance induction experiments were performed using the previously described method. This approach allows for monitoring MIC values after each transfer. Briefly, on the first day, the overnight culture of the wild-type bacteria was diluted with the 2× MHB supplemented with 1.8% NaCl (or without salt) to reach a final cell concentration of 10^6 CFU/mL. 50 µL of the obtained bacterial suspension were added to aliquots of 50 µL of the peptide solutions serially diluted with the sterilized 0.1% BSA in 96-well flat-bottom polystyrene microplates. After incubation for 20 ± 2 h at 37 °C and 950 rpm, MICs were determined as described above. For each subsequent daily transfer, 2–4 μL of the inoculum taken from the first well containing a sub-inhibitory drug concentration was diluted with 2 mL of the fresh 2× MHB supplemented with 1.8% NaCl (or without salt). […] Multiple repeated passages in the presence of antimicrobial agents were performed for each bacterial strain during the experiment. Bacteria that grew at the highest concentrations of AMPs on the final day were passaged further 3 times on drug-free agar plates before determining the final MIC value.

E. coli 1057 WT = experiment: microbe, parasite or virus in culture; type: cell-based, Escherichia coli; details: MHB + 0.9% NaCl
[2] = tested on: HEK293T (transformed embryonic kidney cells); experiment: MTT cytotoxicity; type: cell-based, human; details: mean
Method: (§1) Hemolytic activity of the peptides was tested against the fresh suspension of human red blood cells (hRBC) using the hemoglobin release assay as described previously. Two experiments were performed with the hRBC from blood samples collected from healthy donors by certified medical personnel upon informed written consent. All procedures were approved by the Ethics Committee of the Institute of Experimental Medicine (protocol 1/20 of 2/27/2020) and comply with the ethical principles of the Declaration of Helsinki. The quantitative data were represented as average means with standard deviations. The colorimetric 3-(4,5-dimethylthiazol-2-yl)-2,5-diphenyltetrazolium bromide (MTT) dye reduction assay was used to determine cytotoxicity of the peptides against human keratinocyte cell line (HaCaT) and transformed human embryonic kidney cells (HEK293T). Both cell lines were purchased from American Type Culture Collection (ATCC). 10^4 cells per well in Dulbecco’s modified Eagle’s medium (DMEM/F12) supplemented with 10% fetal bovine serum (FBS, Invitrogen) were placed into 96-well plates and then cultured in the CO2-incubator (5% CO2, 37 °C). After the media were removed, the peptides were dissolved in 100 µL of the same medium and added to cell cultures at different final concentrations. 20 h later, 20 μL of MTT (5 mg/mL, Sigma) was added to each well, and the plates were incubated for 4 h at 37 °C. Then, the media were discarded and 100 µL DMSO-isopropanol mixture at a ratio of 1:1 (v/v) was added to each well to dissolve the crystallized formazan. The absorbance at 570 nm was measured by a microplate reader AF2200 (Eppendorf). An optical density in the wells containing cells cultured without the peptides was assumed to represent 100% cell viability. Two independent experiments were performed for each peptide.

HaCaT (keratinocytes) = experiment: MTT cytotoxicity; type: cell-based, human; details: mean
Method: as §1

E. coli BW25113 = experiment: MIC broth microdilution; type: cell-based, Escherichia coli; details: for Minimum inhibitory concentration MHB + 0.9% NaCl: Mueller-Hinton broth + 0.9% NaCl; for Minimum inhibitory concentration MHB + 0.9% NaCl / Minimum inhibitory concentration MHB: 24 h 37 °C, median of ≥3 experiments; for Minimum inhibitory concentration MHB: Mueller-Hinton broth without salt; for fold change of MIC vs wild-type rumicidin-1: N-terminal shortening
Method: (§2) The reduction of resazurin to resorufin was recorded.

[3] = tested on: E. coli BL21 (DE3) Star cell extract; experiment: Cell-free protein synthesis (coupled transcription/translation) of EGFP; type: biochemical, Escherichia coli; details: minimum concentration that provides >90% inhibition of the EGFP synthesis in the CFPS system
Method: To investigate the effects of AMPs and antibiotics on the coupled transcription/translation process, the test compounds were added to a cell-free protein synthesis (CFPS) reaction mix with a plasmid encoding enhanced green fluorescent protein (EGFP) variant (F64L, S65T, Q80R, F99S, M153T, and V163A) under control of the T7 promoter. The cell lysate was prepared using the E. coli BL21 Star (DE3) overexpressed T7 RNA polymerase as described previously. The reaction mix consisted of the following components: 1.2 mM ATP, 0.8 mM UTP, 0.8 mM GTP, 0.8 mM CTP, 2 mM of each of 20 proteinogenic amino acids, 1.5 mM spermidine, 1 mM putrescine dihydrochloride, 0.06647 mM calcium folinate, […] tRNA from the E. coli MRE 600 strain, 0.33 mM NAD, 120 mM HEPES-KOH (pH 8.0), 10 mM ammonium glutamate, 175 mM potassium glutamate, 60 mM glucose, 15 mM magnesium glutamate, 2% PEG 8000, 25% E. coli BL21 Star (DE3) cell lysate, 1 ng/ml plasmid DNA. The reaction volume was 50 µL. The peptides were dissolved in PBS with the addition of 0.1% BSA. Erythromycin was used in the positive control reactions. The fluorescence of the sample without inhibitor was set as the 100% value. The reaction proceeded for 2 h in 96-well v-bottom black polystyrene microplates (Eppendorf #0030601904) in a plate shaker (30 °C, 1000 rpm). The fluorescence of the synthesized EGFP was measured with the microplate reader AF2200 (λEx = 488 nm, λEm = 510 nm; Eppendorf). The experimental data were obtained from at least two independent experiments performed in triplicate. Non-linear regression curves were generated using GraphPad Prism v.8.0.1 (GraphPad Software Inc.).

S. aureus ATCC 29213 = type: cell-based, Staphylococcus aureus; details: ATCC 29213, 24 h
Method: as §2

[4] = tested on: Mycobacterium smegmatis mc(2)155; type: cell-based; details: Mycobacterium mc(2)155, 24 h
Method: as §2

RRLRPRRPRLPRPRPRPRPRPR [mini-ChBac7.5Nα]
MIC [1]: > 32 µM

CN[C@@H]1[C@H](O)[C@H](NC)[C@H]2O[C@@]3(O)C(=O)C[C@@H](C)O[C@H]3O[C@@H]2[C@H]1O [Spectinomycin]
MIC (E. coli 1057 WT; Escherichia coli, 1057WT, 24 h): 64 µM

CN(C)[C@@H]1C(O)=C(C(N)=O)C(=O)[C@@]2(O)C(O)=C3C(=O)c4c(O)cccc4[C@@](C)(O)[C@H]3C[C@@H]12 [Tetracycline]
MIC (E. coli 1057 WT; Escherichia coli, 1057WT, 24 h): 4 µM

CC[C@H](C)[C@H](NC(=O)CN)C(=O)NCC(=O)N[C@@H](C)C(=O)N[C@H](C(=O)N[C@@H](CC(C)C)C(=O)N[C@@H](CCCCN)C(=O)N[C@H](C(=O)N[C@@H](CC(C)C)C(=O)N[C@H](C(=O)N[C@H](C(=O)NCC(=O)N[C@@H](CC(C)C)C(=O)N1CCC[C@H]1C(=O)N[C@@H](C)C(=O)N[C@@H](CC(C)C)C(=O)N[C@H](C(=O)N[C@@H](CO)C(=O)N[C@@H](Cc1c[nH]c2ccccc12)C(=O)N[C@H](C(=O)N[C@@H](CCCCN)C(=O)N[C@@H](CCCNC(=N)N)C(=O)N[C@@H](CCCCN)C(=O)N[C@@H](CCCNC(=N)N)C(=O)N[C@@H](CCC(N)=O)C(=O)N[C@@H](CCC(N)=O)C(N)=O)[C@@H](C)CC)[C@@H](C)CC)[C@@H](C)O)[C@@H](C)O)C(C)C)C(C)C [Melittin]
HEK293T cell viability ([2]; 0.25 µM): 101.366%
HEK293T cell viability ([2]; 0.5 µM): 102.416%
HEK293T cell viability ([2]; 1 µM): 98.73%
HEK293T cell viability ([2]; 2 µM): 27.546%
HEK293T cell viability ([2]; 4 µM): 9.889%
HEK293T cell viability ([2]; 8 µM): 9.248%
HEK293T cell viability ([2]; 16 µM): 9.026%
HaCaT cell viability (HaCaT (keratinocytes); 0.25 µM): 102.196%
HaCaT cell viability (HaCaT (keratinocytes); 0.5 µM): 104.998%
HaCaT cell viability (HaCaT (keratinocytes); 1 µM): 106.041%
HaCaT cell viability (HaCaT (keratinocytes); 2 µM): 106.484%
HaCaT cell viability (HaCaT (keratinocytes); 4 µM): 67.714%
HaCaT cell viability (HaCaT (keratinocytes); 8 µM): 4.039%
HaCaT cell viability (HaCaT (keratinocytes); 16 µM): 2.958%
HaCaT cell viability (HaCaT (keratinocytes); 32 µM): 4.046%
MIC (E. coli 1057 WT): 8 µM
MIC [1]: 16 µM

RPPHRPRPRPRPWFPPRFP [Rum-1[11-29]]
Minimum inhibitory concentration MHB + 0.9% NaCl (E. coli BW25113): 64 µM
Minimum inhibitory concentration MHB (E. coli BW25113): 8 µM
fold change of MIC vs wild-type rumicidin-1 (E. coli BW25113): ≥ 4 fold
Protein synthesis inhibition [3]: 32 µM

NC[C@H]1O[C@H](O[C@H]2[C@H](O)[C@@H](O[C@H]3O[C@H](CO)[C@@H](O)[C@H](N)[C@H]3O)[C@H](N)C[C@@H]2N)[C@H](O)[C@@H](O)[C@@H]1O [Kanamycin]
MIC (E. coli 1057 WT): 8 µM
MIC [1]: 8 µM

CC1(C)S[C@@H]2[C@H](NC(=O)[C@H](N)c3ccccc3)C(=O)N2[C@H]1C(=O)O [Ampicillin]
MIC (E. coli 1057 WT; Escherichia coli, 1057WT, 24 h): > 128 µM

RGGRLCYCRRRFCVCVGR (Protegrin-1; UniProt P32194 131-148, looked up)
MIC (E. coli 1057 WT): 0.25 µM
MIC [1]: 0.25 µM

RARRPRPPKPRPPHRP [Rum-1[1-16]]
Minimum inhibitory concentration MHB + 0.9% NaCl (E. coli BW25113): > 256 µM
Minimum inhibitory concentration MHB (E. coli BW25113): 256 µM

RARRPRPPKPRPPHRPRPRPRP [Rum-1[1-22]]
Minimum inhibitory concentration MHB + 0.9% NaCl (E. coli BW25113): 256 µM
Minimum inhibitory concentration MHB (E. coli BW25113): 16 µM

RPRPRPRPWFPPRFP [Rum-1[15-29]]
Minimum inhibitory concentration MHB + 0.9% NaCl (E. coli BW25113): > 256 µM
Minimum inhibitory concentration MHB (E. coli BW25113): 32 µM
Protein synthesis inhibition [3]: 256 µM

RPRPPKPRPPHRPRPRPRPWFPPRFP [Rum-1[4-29]]
Minimum inhibitory concentration MHB + 0.9% NaCl (E. coli BW25113): 16 µM
Minimum inhibitory concentration MHB (E. coli BW25113): 4 µM
fold change of MIC vs wild-type rumicidin-1 (E. coli BW25113): two-fold
Protein synthesis inhibition [3]: 4 µM

Gentamycin
MIC (E. coli 1057 WT): 2 µM
MIC [1]: 2 µM

CCC[C@@H]1C[C@@H](C(=O)N[C@@H]([C@H]2O[C@H](SC)[C@H](O)[C@@H](O)[C@H]2O)[C@H](C)Cl)N(C)C1 [Clindamycin]
MIC (E. coli 1057 WT; Escherichia coli, 1057WT, 24 h): 128 µM

RDRRRRPPRPRPPHRPRPRPLPWFPPRFP [Rumicidin-2]
MIC S. aureus ATCC 29213 (S. aureus ATCC 29213): > 32 µM
Minimum inhibitory concentration (MIC) [4]: 1 µM
MIC [1]: > 64 µM

CO/N=C(\C(=O)N[C@@H]1C(=O)N2C(C(=O)O)=C(CSc3nc(=O)c(=O)[nH]n3C)CS[C@H]12)c1csc(N)n1 [Ceftriaxone]
MIC (E. coli 1057 WT; Escherichia coli, 1057WT, 24 h): 128 µM

RPPKPRPPHRPRPRPRPWFPPRFP [Rum-1[6-29]]
Minimum inhibitory concentration MHB + 0.9% NaCl (E. coli BW25113): 16 to 32 µM
Minimum inhibitory concentration MHB (E. coli BW25113): 4 µM
fold change of MIC vs wild-type rumicidin-1 (E. coli BW25113): two-fold
Protein synthesis inhibition [3]: 4 µM

CO[C@H]1/C=C/O[C@@]2(C)Oc3c(C)c(O)c4c(O)c(c(/C=N/N5CCN(C)CC5)c(O)c4c3C2=O)NC(=O)/C(C)=C\C=C\[C@H](C)[C@H](O)[C@@H](C)[C@@H](O)[C@@H](C)[C@H](OC(C)=O)[C@@H]1C [Rifampicin]
MIC (E. coli 1057 WT; Escherichia coli, 1057WT, 24 h): 32 µM

[H]/N=C(/N)N[C@H]1[C@H](O)[C@@H](O)[C@H](O[C@@H]2O[C@@H](C)[C@](O)(C=O)[C@H]2O[C@@H]2O[C@@H](CO)[C@H](O)[C@@H](O)[C@@H]2NC)[C@@H](N/C(N)=N\[H])[C@@H]1O [Streptomycin]
MIC (E. coli 1057 WT; Escherichia coli, 1057WT, 24 h): 4 µM

PHRPRPRPRPWFPPRFP [Rum-1[13-29]]
Minimum inhibitory concentration MHB + 0.9% NaCl (E. coli BW25113): > 256 µM
Minimum inhibitory concentration MHB (E. coli BW25113): 32 µM
Protein synthesis inhibition [3]: 64 µM

O=C(N[C@H](CO)[C@H](O)c1ccc([N+](=O)[O-])cc1)C(Cl)Cl [Chloramphenicol]
MIC (E. coli 1057 WT; Escherichia coli, 1057WT, 24 h): 16 µM
